According to patent publication US20170027938A1, “Combination” (Novartis AG, priority 2011, published 2017):

System: 231/LM2-4 human breast cancer cells
Assay: Advanced metastatic breast cancer model (231/LM2-4), survival after primary tumor resection
Format: in vivo, CB-17 SCID mice
Conditions: for Median survival: therapy initiated 19 days after resection
Source text: The original cell line, MDA-MB 231, was a gift from Dr. Jeffrey F. Lemontt in September, 1989, together with other variants of this cell line. Cell line 231/LM2-4 (human breast cancer cells) used in the study was derived by one of the inventors as described in Munoz R, Man S, Shaked Y, et al. Highly efficacious non-toxic treatment for advanced metastatic breast cancer using combination UFT-cyclophosphamide metronomic chemotherapy, Cancer Res 2006; 66:3386-91.
Two million 231/LM2-4 human breast cancer cells were implanted into the mammary fat pad of 6-8 week old female CB-17 SCID mice purchased from Charles River Canada. Twenty days later when tumor volumes were approximately 400 mm^3, the primary tumors were surgically resected. Therapy was initiated 19 days after resection when visceral metastases were established in sites such as lung and liver. Mice were randomized into groups of 4 and treated as follows: 1) Control—vehicle; 2) Low dose metronomic oral topotecan; 3) pazopanib; 4) Low dose metronomic oral topotecan+pazopanib; 5) Maximum tolerated dose topotecan; and 6) maximum tolerated dose topotecan+pazopanib. The schedule and doses of drugs used were metronomic oral topotecan 1 mg/kg/d by gavage, maximum tolerated dose topotecan 1.5 mg/kg by gavage for 5 consecutive days followed by 16 days break ip, pazopanib 150 mg/kg/d by gavage, and control mice were given the topotecan vehicle and/or pazopanib vehicle. The oral topotecan and pazopanib preparations were mixed just prior to administration to avoid possible drug interaction. Institutional guidelines for survival endpoint were followed.

## CC[C@@]1(O)C(=O)OCc2c1cc1n(c2=O)Cc2cc3c(CN(C)C)c(O)ccc3nc2-1 [topotecan, (S)-10-[(dimethylamino)methyl]-4-ethyl-4,9-dihydroxy-1H-pyrano[3′,4′:6,7]indolizino [1,2-b]quinoline-3,14-(4H,12H)-dione]
LDM oral topotecan alone, 1 mg/kg/d by gavage
  Survival benefit compared to control untreated mice (FIG. 1): neither low dose metronomic (LDM) oral topotecan alone nor pazopanib alone had any survival benefit
Low dose metronomic (LDM) oral topotecan alone, 1 mg/kg/d by gavage
  Median survival: 56 days
Maximum tolerated dose (MTD) topotecan 1.5 mg/kg for 5 consecutive days followed by 16 days break
  Median survival: 63 days
